Measurements: patent publication US20260077055A1, “COMPOSITIONS OF POLYPLEXES AND SAPONINS” (SAPREME TECHNOLOGIES B.V., priority 2022, published 2026)

Tested on: EGFR-A2058 cells
Test: Cell viability (MTS) after polyplex transfection of A2058 cells
Format: cell-based
Conditions: co-administered with PAMAM G5(PEG-N3)6.2 npSaporin polyplexes; 73 nM Cetuximab-SO1861 or 4 μM SO1861-EMCH; 72 h
Experimental: Spectrophotometry: Concentrations were determined using either a Thermo Nanodrop 2000 spectrometer or Perkin Elmer Lambda 365 Spectrophotometer. DLS measurements: DLS measurements were performed on a Malvern Nano ZS (Malvern Instruments, U.K.), operating at 633 nm with a 173° scattering angle, at 25 or 37° C. DLS mean diameters were obtained from the intensity particle size distribution provided by Malvern Zetasizer Software. DLS histograms were obtained from the intensity particle size distributions. […] Infrared Spectroscopy: FT-IR spectra were recorded on a Bruker Vertex 70v, equipped with a RockSolid interferometer, after preparing the samples (1-2 mg) as KBr pellets. […] NMR Spectroscopy: 1H NMR spectra were recorded on a 11.7 T Bruker DRX-500 spectrometer. […] Experiments were recorded acquiring 64-512 scans, with a pre-scan delay (d1) of 12 s, and an acquisition time (aq) of 4 s at 300 K. 13C NMR spectrum was recorder on a 9.39 T Varian Innova 400 spectrometer. […] After treatment, the cells were incubated for 72 hr at 37° C. before the cell viability was determined by a MTS-assay performed according to the manufacturer's instruction (CellTiter 96® AQueous One Solution Cell Proliferation Assay, Promega). […]

For `CC(=O)OC1C(C)OC(OC2C(C)OC(OC(=O)[C@]34CCC(C)(C)CC3C3=CCC5[C@@]6(C)CC[C@H](OC7OC(C(=O)O)C(O)C(OC8OCC(O)C(O)C8O)C7OC7OC(CO)C(O)C(O)C7O)[C@@](C)(/C=N/NC(=O)CCCCCN7C(=O)C=CC7=O)C6CC[C@@]5(C)[C@]3(C)C[C@H]4O)C(OC3OC(C)C(OC4OCC(O)C(OC5OC(CO)C(O)C(O)C5O)C4O)C(O)C3O)C2O)C(O)C1OC1OCC(O)C(O)C1O` (stereo partly shown) [SO1861-EMCH], the “cytoplasmic delivery of npSaporin / cell killing” value was “strongly enhanced the cytoplasmic delivery of npSaporin”.
